# Patent publication US11753433B2, “Methods of synthesizing substituted purine compounds” (Epizyme, Inc., priority 2013, dated 2023)
# Tests used:
# [1] = Dynamic vapor sorption (DVS) hygroscopicity; assay type: physicochemical; conditions: at 80% RH, 25° C.
# Method: (peak temperature) which is accompanied by 5.9 wt % weight loss up to ˜150° C. in the TGA curve (FIG. 3). […] A solid is considered moderately hygroscopic when water uptake at 25° C./80% RH is between 2-15 wt % based on criteria of European Pharmacopeia. […] Form B of EP-1 trihydrate (x is 3) is a trihydrate as confirmed by single crystal analysis. The experimental XRPD pattern of Form B matches well with the simulated one from single crystal data (FIG. 6). This was also confirmed by DSC and TGA data (FIG. 7 and FIG. 8, respectively). DSC data indicates Form B dehydrates at ˜132° C. […] Form B is slightly hygroscopic as evidenced by a weight change of ˜0.3% between 0% and 95% RH (FIG. 9), (data collection was programmed from 95% RH-0% RH-95% RH at a step size of 10% RH at 25° C.).
# [2] = Solubility in Simulated Gastric Fluid (SGF) at 37° C.; assay type: physicochemical; conditions: for Resulting Solid: XRPD; for Solubility: calculated using free base content
# Method: To study if Form A and Form B would perform differently in stomach, the solubilities of Form A and Form B were measured in Simulated Gastric Fluid (SGF, see below for SGF preparation) at 37° C. […] The remaining solids after each time point were subject to XRPD analysis. […] Weigh appropriate amount of hydrochloride (HCl) and sodium chloride (NaCl) into a 1-L flask followed by addition of 1-L deionized water. The mixture was stirred until all solids are dissolved. Check pH value with a pH-meter and adjust the pH to 1.8 with HCl (1N) or NaOH (1N).
compound,measurement,setting,value
"CC(C)N(CC1O[C@@H](n2cnc3c(N)ncnc32)[C@H](O)[C@@H]1O)C1CC(CCc2nc3cc(C(C)(C)C)ccc3[nH]2)C1 (stereo partly drawn) [Form A, (2R,3R,4S,5R)-2-(6-amino-9H-purin-9-yl)-5-((((1r,3S)-3-(2-(5-(tert-butyl)-1H-benzo[d]imidazol-2-yl)ethyl)cyclobutyl)(isopropyl)amino)methyl)tetrahydrofuran-3,4-diol hydrate]",water adsorption measured by dynamic vapor sorption (DVS),[1],~5.8 wt %
same,Final pH,[2],5.1
same,time of conversion of Form A to Form B in SGF,[2],≤ 15 min
same,Resulting Solid,[2]; 15 min,Type B
same,Solubility,[2]; 15 min,5400 µg/mL
same,Resulting Solid,[2]; 30 min,Type B
same,Solubility,[2]; 30 min,5500 µg/mL
same,Resulting Solid,[2]; 60 min,Type B
same,Solubility,[2]; 60 min,5300 µg/mL
